From publication PMC12744908 (Journal of medicinal chemistry, 2025)

Columns and labels:
HepG2 cytotoxicity assay = format: cell-based; conditions: human
Plasmodium yoelii [1] = test: In vivo parasite suppression at fixed dose, modified 4-day Peters test; design: species or system Plasmodium yoelii (female CF1 mice); conditions: for inhibition in vivo at 2.5 mg/kg: Plasmodium yoelii, in Mus musculus, po, 120 h, read-out: % Py Suppression; for % Py Suppression: 2.5 mg/kg/d oral, Days 1-4, parasitemia Day 5 vs vehicle control, n = 4
[2] = Murine microsomal stability; format: in vitro ADME
Plasmodium yoelii [3] = test: In vivo efficacy; design: species or system Plasmodium yoelii (female CF1 mice); conditions: oral once daily for 4 days, parasitemia Day 5
[4] = tested on: Plasmodium falciparum, Strain D6; test: In vitro antiplasmodial activity, fluorescence-based SYBR Green assay, strain D6; format: cell-based; conditions: D6, 72 h, read-out: IC50 v D6 ± SD
Plasmodium yoelii [5] = test: Single dose cure; format: in vivo, Plasmodium yoelii (female CF1 mice); conditions: single oral dose Day 1, 0% parasitemia until Day 30
[6] = mouse, pooled liver microsomes, pH 7.4

Row | CLint scaled at 1 μM [2, 6] [mL/min/kg] | SMILES | CC50 at 24 h (HepG2 cytotoxicity assay; HepG2 cells) [µM] | inhibition in vivo at 2.5 mg/kg (Plasmodium yoelii [1]) [%] | other results
1 |  | FC(F)(F)Oc1ccc(-c2cnc3cc(Cl)ccc3c2Nc2ccc(N3CCOCC3)cc2)cc1 [Compound 8, 7-chloro-N-(4-morpholinophenyl)-3-(4-(trifluoromethoxy)phenyl)quinolin-4-amine] | > 200 |  | 
2 | 392 | Clc1ccc2c(Nc3ccc(N4CCN(Cc5ccccc5)CC4)cc3)ccnc2c1 [Compound 17, N-(4-(4-benzylpiperazin-1-yl)phenyl)-7-chloroquinolin-4-amine] | > 200 | 0 | 
3 | 124 | CC(C)N1CCC(c2ccc(Nc3ccnc4cc(Cl)ccc34)cc2)CC1 [Compound 35, 7-chloro-N-(4-(1-isopropylpiperidin-4-yl)phenyl)quinolin-4-amine] | > 200 | 48 | ED50 v Py (Plasmodium yoelii [3]): 1.1 mg/kg/day; ED90 v Py (Plasmodium yoelii [3]): 4.1 mg/kg/day
4 | 98.3 | CCC(C)N1CCC(c2ccc(Nc3ccnc4cc(Cl)ccc34)cc2)CC1 (centres unmarked) [Compound 44, N-(4-(1-(sec-butyl)piperidin-4-yl)phenyl)-7-chloroquinolin-4-amine] | > 200 | 71 | 
5 |  | CCN1CCN(c2ccc(Nc3ccnc4cc(Br)ccc34)cc2)CC1 [Compound 25, 7-bromo-N-(4-(4-ethylpiperazin-1-yl)phenyl)quinolin-4-amine] | 48 |  | 
6 |  | Clc1ccc2c(Nc3ccc(N4CCN(C5CC5)CC4)cc3)ccnc2c1 [Compound 33, 7-chloro-N-(4-(4-cyclopropylpiperazin-1-yl)phenyl)quinolin-4-amine] | > 200 |  | 
7 |  | Clc1ccc2c(Nc3ccc(C4CN(Cc5ccccc5)CCO4)cc3)ccnc2c1 (centres unmarked) [Compound 15, N-(4-(4-benzylmorpholin-2-yl)phenyl)-7-chloroquinolin-4-amine] | 38 |  | 
8 |  | CCN1CCOCC1c1ccc(Nc2ccnc3cc(Cl)ccc23)cc1 (centres unmarked) [Compound 13, 7-chloro-N-(4-(4-ethylmorpholin-3-yl)phenyl)quinolin-4-amine] | > 200 |  | 
9 |  | CC(C)(C)N1CCN(c2ccc(Nc3ccnc4cc(Cl)ccc34)cc2)CC1 [Compound 31, N-(4-(4-(tert-butyl)piperazin-1-yl)phenyl)-7-chloroquinolin-4-amine] | > 200 | 30 | t1/2 (microsomal stability) ([2]; pooled murine liver microsomes, 1 μM, 0.5 mg/mL protein, 37 °C, 1 h): ∞; compound metabolized over the course of the microsomal experiment ([2]; pooled murine liver microsomes, 1 h): no detectable amount of compound was metabolized; ED50 v Py (Plasmodium yoelii [3]): 4.0 mg/kg/day; ED90 v Py (Plasmodium yoelii [3]): 7.6 mg/kg/day
10 |  | Clc1ccc2c(Nc3ccc(N4CCNCC4)cc3)ccnc2c1 [Compound 38, 7-chloro-N-(4-(piperazin-1-yl)phenyl)quinolin-4-amine] | 54 |  | 
11 | 497 | CCN1CCC(c2ccc(Nc3ccnc4cc(Cl)ccc34)cc2)CC1 [Compound 40, 7-chloro-N-(4-(1-ethylpiperidin-4-yl)phenyl)quinolin-4-amine] |  | 13 | ED50 v Py (Plasmodium yoelii [3]): 1.8 mg/kg/day; ED90 v Py (Plasmodium yoelii [3]): 13 mg/kg/day
12 | 843 | CC(C)CN1CCN(c2ccc(Nc3ccnc4cc(Cl)ccc34)cc2)CC1 [Compound 45, 7-chloro-N-(4-(4-isobutylpiperazin-1-yl)phenyl)quinolin-4-amine] | > 200 |  | % Py Suppression (Plasmodium yoelii [1]): 30%; half-life at 1 μM [2, 6]: 6.47 min
13 |  | CCN(CC)CCCC(C)Nc1ccnc2cc(Cl)ccc12 (centres unmarked) [Compound 1, chloroquine] |  |  | IC50 [4]: 0.0096 ± 0.002 µM
14 |  | CCN1CCOCC1c1ccc(Nc2c(-c3ccc(OC(F)(F)F)cc3)cnc3cc(Cl)ccc23)cc1 (centres unmarked) [Compound 14, 7-chloro-N-(4-(4-ethylmorpholin-3-yl)phenyl)-3-(4-(trifluoromethoxy)phenyl)quinolin-4-amine] | > 200 |  | 
15 |  | FC(F)(F)Oc1ccc(-c2cnc3cc(Cl)ccc3c2Nc2ccc(C3CN(Cc4ccccc4)CCO3)cc2)cc1 (centres unmarked) [Compound 16, N-(4-(4-benzylmorpholin-2-yl)phenyl)-7-chloro-3-(4-(trifluoromethoxy)phenyl)quinolin-4-amine] | > 200 |  | 
16 |  | FC(F)(F)c1ccc(N2CCN(c3ccc(Nc4ccnc5cc(Cl)ccc45)cc3)CC2)cc1 [Compound 32, 7-chloro-N-(4-(4-(4-(trifluoromethyl)phenyl)piperazin-1-yl)phenyl)quinolin-4-amine] | > 200 |  | 
17 |  | CC(C)(C)OC(=O)N1CCN(c2ccc(Nc3ccnc4cc(Cl)ccc34)cc2)CC1 [Compound 36, tert-butyl 4-(4-((7-chloroquinolin-4-yl)amino)phenyl)piperazine-1-carboxylate] | > 200 |  | 
18 | 2930 | CCN1CCN(c2ccc(Nc3ccnc4cc(Cl)ccc34)cc2)CC1 [Compound 20, 7-chloro-N-(4-(4-ethylpiperazin-1-yl)phenyl)quinolin-4-amine] | > 200 | 60 | ED50 v Py (Plasmodium yoelii [3]): 1.5 mg/kg/day; ED90 v Py (Plasmodium yoelii [3]): 8.4 mg/kg/day
19 |  | CCN1CCN(c2ccc(Nc3ccnc4cc(Cl)c(Cl)cc34)cc2)CC1 [Compound 24, 6,7-dichloro-N-(4-(4-ethylpiperazin-1-yl)phenyl)quinolin-4-amine] | > 200 |  | 
20 | 78 | CCCN1CCC(c2ccc(Nc3ccnc4cc(Cl)ccc34)cc2)CC1 [Compound 41, 7-chloro-N-(4-(1-propylpiperidin-4-yl)phenyl)quinolin-4-amine] | > 200 | 39 | % Py Suppression (Plasmodium yoelii [1]): 39%
21 |  | Clc1ccc2c(Nc3ccc(N4CCOCC4)cc3)ccnc2c1 [Compound 7, 7-chloro-N-(4-morpholinophenyl)quinolin-4-amine] | > 200 |  | 
22 |  | Clc1ccc2c(Nc3ccc(N4CCCCC4)cc3)ccnc2c1 [Compound 34, 7-chloro-N-(4-(piperidin-1-yl)phenyl)quinolin-4-amine] | > 200 |  | 
23 |  | Clc1ccc2c(Nc3ccc(C4COCCN4Cc4ccccc4)cc3)ccnc2c1 (centres unmarked) [Compound 12, N-(4-(4-benzylmorpholin-3-yl)phenyl)-7-chloroquinolin-4-amine] | > 200 |  | 
24 |  | CCN1CCN(c2ccc(Nc3ccnc4cc(C(F)(F)F)ccc34)cc2)CC1 [Compound 26, N-(4-(4-ethylpiperazin-1-yl)phenyl)-7-(trifluoromethyl)quinolin-4-amine] | > 200 |  | 
25 | 130 | CCCCN1CCC(c2ccc(Nc3ccnc4cc(Cl)ccc34)cc2)CC1 [Compound 42, N-(4-(1-butylpiperidin-4-yl)phenyl)-7-chloroquinolin-4-amine] | > 200 | 53 | 
26 |  | Clc1ccc2c(Nc3ccc(C4CCNCC4)cc3)ccnc2c1 [Compound 39, 7-chloro-N-(4-(piperidin-4-yl)phenyl)quinolin-4-amine] | 58 |  | 
27 |  | CC(C)CN1CCC(c2ccc(Nc3ccnc4cc(Cl)ccc34)cc2)CC1 [Compound 43, 7-chloro-N-(4-(1-isobutylpiperidin-4-yl)phenyl)quinolin-4-amine] |  | 91 | % Py Suppression (Plasmodium yoelii [1]): 91%; SDC (single dose cure) (Plasmodium yoelii [5]): 50 mg/kg; CC50 at 24 h (HepG2 cytotoxicity assay): > 200 µM
28 | 3780 | CN1CCN(c2ccc(Nc3ccnc4cc(Cl)ccc34)cc2)CC1 [Compound 21, 7-chloro-N-(4-(4-methylpiperazin-1-yl)phenyl)quinolin-4-amine] |  |  | 
